One experiment has as its target T1, mTORC (Homo sapiens, UniProt P42345).
T1 construct: purchased Invitrogen
Briefly: mTORC in vitro IC50 (Table 2). The class given is biochemical.

Another experiment relates to PC3. The experiment in a line: PC3 tumor cell line proliferation assay. The class given is cell-based. The note with it: Homo sapiens, PC-3.
The test system of another experiment is A498 xenografts. The experiment in a line: Tumor hypoxia by pimonidazole staining in A498 xenografts. The class given is in vivo, Mice. The method, then:
Mice bearing A498 xenografts were treated as shown below in Table 5 for 6 weeks or cycles (each cycle consisting of 7 days). During cycle 6, mice were sacrificed 2 hours after dosing. Pimonidazole hydrochloride, which binds to proteins in hypoxia conditions, was injected intraperitoneally 60 minutes before the tumor was harvested. Tumors were collected either at 2 hr of vehicle (Groups A, C, and D), Compound A (Groups B, C, and E) or sorafenib (Group D) dosing. Tumor tissues were formalin fixed and paraffin embedded. Tissue sections were stained with anti-pimonidazole antibody and visualized with DAB (dark brown).

[1] abbreviates: Table 2, read-out: PC3 proliferation.

These results are taken from patent US20170209448A1, “TREATMENT REGIMENS USING MULTIPLE PHARMACEUTICAL AGENTS” (INTELLIKINE LLC, priority 2011, published 2017).

Read-outs that look alike come from different tables or passages of the source.

T1 sequence (P42345 1360-2549 limits assumed): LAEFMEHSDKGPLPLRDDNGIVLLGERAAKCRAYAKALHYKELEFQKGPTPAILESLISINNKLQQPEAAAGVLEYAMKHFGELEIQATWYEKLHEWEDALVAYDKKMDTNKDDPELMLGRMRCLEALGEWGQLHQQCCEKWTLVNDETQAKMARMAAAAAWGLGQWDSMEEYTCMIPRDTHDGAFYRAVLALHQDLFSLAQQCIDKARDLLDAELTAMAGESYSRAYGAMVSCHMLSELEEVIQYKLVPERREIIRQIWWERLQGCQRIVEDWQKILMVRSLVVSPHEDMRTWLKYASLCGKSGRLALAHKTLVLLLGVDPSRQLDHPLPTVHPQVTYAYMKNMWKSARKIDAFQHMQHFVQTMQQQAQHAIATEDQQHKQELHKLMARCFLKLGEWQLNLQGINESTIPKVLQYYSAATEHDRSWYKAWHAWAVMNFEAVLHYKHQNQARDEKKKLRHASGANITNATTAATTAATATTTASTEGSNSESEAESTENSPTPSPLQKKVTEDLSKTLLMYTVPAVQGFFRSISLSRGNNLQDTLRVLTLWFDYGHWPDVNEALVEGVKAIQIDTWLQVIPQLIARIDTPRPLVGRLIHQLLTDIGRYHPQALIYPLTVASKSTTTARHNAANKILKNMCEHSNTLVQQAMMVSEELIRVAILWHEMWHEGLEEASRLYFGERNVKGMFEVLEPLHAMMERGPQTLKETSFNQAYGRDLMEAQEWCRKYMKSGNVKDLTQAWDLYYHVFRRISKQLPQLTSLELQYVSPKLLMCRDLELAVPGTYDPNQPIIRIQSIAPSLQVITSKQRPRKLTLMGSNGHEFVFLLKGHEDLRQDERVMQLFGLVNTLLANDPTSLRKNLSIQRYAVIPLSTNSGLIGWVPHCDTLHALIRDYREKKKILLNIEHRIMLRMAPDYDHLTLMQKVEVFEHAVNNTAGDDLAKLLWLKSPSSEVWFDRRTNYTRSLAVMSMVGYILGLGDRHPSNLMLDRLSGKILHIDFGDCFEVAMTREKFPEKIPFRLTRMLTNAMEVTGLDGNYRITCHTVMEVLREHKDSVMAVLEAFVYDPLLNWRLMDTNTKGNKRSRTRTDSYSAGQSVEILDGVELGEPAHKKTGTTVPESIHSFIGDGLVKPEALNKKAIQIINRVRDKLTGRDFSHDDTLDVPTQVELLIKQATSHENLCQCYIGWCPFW
Protocol for PC3: The assay is performed in a 96 well microtiter plate using Alamar Blue reduction. […] A compound disclosed herein is diluted in Tumor Cell Media and added in a 10 ul volume. […] A volume of 10 uL of Alamar Blue reagent is added to each well and plates are incubated for 3 hours at 37 C and 5% CO2.
Protocol for mTORC: The compounds described herein and any other mTor inhibitors known in the art can be tested against recombinant mTOR (Invitrogen) in an assay containing 50 mM HEPES, pH 7.5, 1 mM EGTA, 10 mM MgCl2, 2.5 mM, 0.01% Tween, 10 μM ATP (2.5 μLCi of μ-32P-ATP), and 3 μg/mL BSA. Rat recombinant PHAS-1/4EBP1 (Calbiochem; 2 mg/mL) is used as a substrate. Reactions are terminated by spotting onto nitrocellulose, which is washed with 1M NaCl/1% phosphoric acid (approximately 6 times, 5-10 minutes each). Sheets are dried and the transferred radioactivity quantitated by phosphorimaging.
For instance, one can use Invitrogen's LanthaScreen™ Kinase assay to test the inhibitors of mTOR disclosed herein. This assay is a time resolved FRET platform that measures the phosphorylation of GFP labeled 4EBP1 by mTOR kinase. The kinase reaction is performed in a white 384 well microtitre plate. The total reaction volume is 20 ul per well and the reaction buffer composition is 50 mM HEPES pH7.5, 0.01% Polysorbate 20, 1 mM EGTA, 10 mM MnCl2, and 2 mM DTT. In the first step, each well receives 2 ul of test compound in 20% dimethylsulphoxide resulting in a 2% DMSO final concentration. Next, 8 ul of mTOR diluted in reaction buffer is added per well for a 60 ng/ml final concentration. To start the reaction, 10 ul of an ATP/GFP-4EBP1 mixture (diluted in reaction buffer) is added per well for a final concentration of 10 μM ATP and 0.5 μM GFP-4EBP1. The plate is sealed and incubated for 1 hour at room temperature. […] The plate is sealed, incubated for 1 hour at room temperature, and then read on a plate reader set up for LanthaScreen™ TR-FRET. Data is analyzed and IC50s are generated using GraphPad Prism 5.

For `CC(C)N1CCC(n2nc(-c3cc4cc(O)ccc4[nH]3)c3c(N)ncnc32)CC1` [Compound 55], the IC50 at mTORC was under 500 nM.

Consider `CC(C)n1cc(-c2ccc3oc(N)nc3c2)c2c(N)ncnc21` [Compound 8], for which the IC50 in the experiment with PC3 (Table 1, read-out: PC3 IC50) was under 100 nM.

Regarding `CC(C)n1nc(-c2cc3c(Cl)ccc(O)c3[nH]2)c2c(N)ncnc21` [Compound 39], the IC50 against mTORC is under 10 nM.

With `CNC(=O)c1cc(Oc2ccc(NC(=O)Nc3ccc(Cl)c(C(F)(F)F)c3)cc2)ccn1` [Sorafenib, sorafenib], in the experiment on A498 xenografts (6 cycles, doses and schedules of Table 5 (Compound A 1 mg/kg PO QD or 3QW; Sorafenib 40 mg/kg IP 4QW; alternating 3QW/4QW), tumor 2 hr after dosing), the “tumor hypoxia (anti-pimonidazole staining)” value is “caused necrosis and cells surrounding the necrosis area appear pimonidazole positive”. Besides, the “tumor hypoxia (anti-pimonidazole staining), off phase” value with A498 xenografts (intermittent dosing (Table 5), off phase of the cycle) is reported as “pimonidazole staining intensity was reduced”.

As to `CC(=O)N1CCC(n2nc(-c3cc4ccc(O)cc4[nH]3)c3c(N)ncnc32)CC1` [Compound 65], on mTORC, the IC50 was under 10 nM.

Regarding `Nc1ncnc2c1c(-c1cc3ccc(O)cc3[nH]1)nn2C1CCOCC1` [Compound 60], the IC50 at mTORC is under 100 nM.

In turn, `Nc1ncnc2c1c(-c1cc3cc(O)ccc3[nH]1)nn2C1CCCCC1` [Compound 26] returned an IC50 at mTORC of under 10 nM.

On to `CC(C)n1nc(-c2cc3cc(F)ccc3[nH]2)c2c(N)ncnc21` [Compound 3], for which, on mTORC, the IC50 was under 500 nM.

On to `CC(C)n1nc(-c2ccc3c(N)noc3c2)c2c(N)ncnc21` [Compound 12], for which, in the experiment with PC3 (Table 1, read-out: PC3 IC50), the IC50 is over 10000 nM.

`Nc1ncnc2c1c(-c1cc3cccc(O)c3[nH]1)nn2C1CCN(C(=O)C2CC2)CC1` [Compound 41] displayed an IC50 on mTORC of under 10 nM.

`Nc1ncnc2c1c(-c1cc3cc(O)ccc3[nH]1)nn2C1CC(N2CCOCC2)C1` (stereo not drawn) [Compound 49] registered an IC50 on mTORC of under 10 nM.

On mTORC, `CC(C)N1CCC(n2nc(-c3cc4c(Cl)ccc(O)c4[nH]3)c3c(N)ncnc32)CC1` [Compound 71] gave an IC50 of under 100 nM.

As to `COc1cccc2cc(-c3nn(C(C)C)c4ncnc(N)c34)[nH]c12` [Compound 10], the IC50 against mTORC was under 25 nM.

As for `CC(C)n1nc(-c2cc3cc(O)c(Cl)cc3[nH]2)c2c(N)ncnc21` [Compound 32], the IC50 on mTORC is under 500 nM.

In the case of `CC(C)n1nc(-c2cc3ccc(C#N)cc3[nH]2)c2c(N)ncnc21` [Compound 24], the IC50 with PC3 (setting [1]) was over 500 nM.

With `CC(C)N1CCC(n2nc(-c3cc4cccc(O)c4[nH]3)c3c(N)ncnc32)CC1` [Compound 64], the IC50 at mTORC is under 25 nM.

In the case of `COc1ccc(Cl)c2cc(-c3nn(C4CCOCC4)c4ncnc(N)c34)[nH]c12` [Compound 61], the IC50 against mTORC was under 25 nM.

With `CC(C)n1nc(-c2cc3ccccc3[nH]2)c2c(N)ncnc21` [Compound 7], the IC50 against mTORC was under 100 nM.

On mTORC, `COCCn1nc(-c2cc3cc(O)ccc3[nH]2)c2c(N)ncnc21` [Compound 40] had an IC50 of under 100 nM.

`Nc1ncnc2c1c(-c1cc3c(Cl)cccc3[nH]1)nn2C1CCOCC1` [Compound 48] returned an IC50 against mTORC of under 50 nM.

For `CC(C)n1nc(-c2ccc3onc(N)c3c2)c2c(N)ncnc21` [Compound 10], the IC50 in the experiment with PC3 (Table 1, read-out: PC3 IC50) is over 10000 nM.

As for `Nc1ncnc2c1c(-c1cc3cccc(Cl)c3[nH]1)nn2C1CCOCC1` [Compound 51], the IC50 on mTORC was under 50 nM.

The molecule `CC(C)n1nc(-c2cc3ccc(O)cc3[nH]2)c2c(N)ncnc21` [Compound 21] showed an IC50 on mTORC of under 50 nM.

As to `CC(=O)N1CCC(n2nc(-c3cc4cc(O)ccc4[nH]3)c3c(N)ncnc32)CC1` [Compound 30], the IC50 against mTORC is under 25 nM.

In turn, `Nc1ncnc2c1c(-c1cc3cc(O)ccc3[nH]1)nn2C1CC(O)C1` (stereo not drawn) [Compound 54] returned an IC50 against mTORC of under 25 nM.

As for `CC(C)n1nc(-c2ccc3nc(N)oc3c2)c2c(N)ncnc21` [Compound 4], the IC50 in the experiment on PC3 (Table 1, read-out: PC3 IC50) was under 10000 nM.

`Nc1nc2cc(-c3cn(C4CCOCC4)c4ncnc(N)c34)ccc2o1` [Compound 9]: the IC50 with PC3 (Table 1, read-out: PC3 IC50) is under 100 nM.

Regarding `CC(=O)Nc1nc2cc(-c3nn(C(C)C)c4ncnc(N)c34)ccc2o1` [Compound 2], the IC50 in the experiment on PC3 (Table 1, read-out: PC3 IC50) was under 1000 nM.

`CC(=O)Nc1noc2cc(-c3nn(C(C)C)c4ncnc(N)c34)ccc12` [Compound 11]: the IC50 with PC3 (Table 1, read-out: PC3 IC50) is over 10000 nM.

For the molecule `Nc1ncnc2c1c(-c1cc3cc(O)ccc3[nH]1)nn2C1CCN(C(=O)C2CC2)CC1` [Compound 31], the IC50 at mTORC was under 25 nM.

`CCOC(=O)Cn1nc(-c2cc3cc(O)ccc3[nH]2)c2c(N)ncnc21` [Compound 28]: the IC50 on mTORC is under 500 nM.

`Nc1ncnc2c1c(-c1cc3cc(O)ccc3[nH]1)nn2C1CCCC1` [Compound 12] came in with an IC50 against mTORC of under 10 nM.

For `Nc1nc2cc(-c3nn(C4CCC(N5CCOCC5)CC4)c4ncnc(N)c34)ccc2o1` (stereo not drawn) [Compound 6], in the experiment with PC3 (Table 1, read-out: PC3 IC50), the IC50 is under 1000 nM.

`CN1CCN(C2CC(n3nc(-c4cc5cc(O)ccc5[nH]4)c4c(N)ncnc43)C2)CC1` (stereo not drawn) [Compound 52] showed an IC50 on mTORC of under 500 nM.

Regarding `Nc1ncnc2c1c(-c1cc3cc(O)ccc3[nH]1)nn2CCN1CCOCC1` [Compound 33], the IC50 on mTORC is under 500 nM.

For `CC(C)n1nc(-c2cc3ccc(C(N)=O)cc3[nH]2)c2c(N)ncnc21` [Compound 25], the IC50 against mTORC is under 500 nM; in the experiment on PC3 (setting [1]), over 500 nM.

Turning to `CC(=O)N1CCC(n2nc(-c3ccc4oc(N)nc4c3)c3c(N)ncnc32)CC1` [Compound 7], the IC50 in the experiment on PC3 (Table 1, read-out: PC3 IC50) is under 10000 nM.

Consider `Nc1nc2cc(-c3nn(C4CCOCC4)c4ncnc(N)c34)ccc2o1` [Compound 5], for which the IC50 with PC3 (Table 1, read-out: PC3 IC50) is under 100 nM.

As to `CC(C)n1nc(-c2cc3c(Cl)cccc3[nH]2)c2c(N)ncnc21` [Compound 9], the IC50 against mTORC is under 50 nM.

Molecule `Cc1nccn1CCn1nc(-c2cc3cc(O)ccc3[nH]2)c2c(N)ncnc21` [Compound 44] returned an IC50 on mTORC of under 100 nM.

On mTORC, `Nc1ncnc2c1c(-c1cc3cccc(O)c3[nH]1)nn2C1CCCC1` [Compound 36] yielded an IC50 of under 10 nM.

`Nc1ncnc2c1c(-c1cc3cc(O)ccc3[nH]1)nn2C1CCC1` [Compound 27]: the IC50 against mTORC was under 25 nM.

Turning to `Nc1ncnc2c1c(-c1cc3cc(O)ccc3[nH]1)nn2C1CCC(N2CCOCC2)CC1` (stereo not drawn) [Compound 57], on mTORC, the IC50 was under 25 nM.

In turn, `CC(C)n1nc(-c2cc3cccc(Cl)c3[nH]2)c2c(N)ncnc21` [Compound 50] yielded an IC50 against mTORC of under 50 nM.

At mTORC, `Nc1ncnc2c1c(-c1cc3cc(O)ccc3[nH]1)nn2C1CC(=O)C1` [Compound 53] came in with an IC50 of under 100 nM.

As to `Nc1ncnc2c1c(-c1cc3cc(O)ccc3[nH]1)nn2Cc1cccnc1` [Compound 38], the IC50 against mTORC is under 500 nM.
